Results: patent US5726325A, “Tricyclic compounds” (Kyowa Hakko Kogyo Co., Ltd., priority 1995, dated 1998)

Columns and labels:
[1] = tested on: detrusor muscle; assay: Test Example 1: relaxation of guinea pig bladder strips contracted with 50 mM KCl; type: cell-based, guinea pig (male albino Hartley); conditions: Cavia porcellus; contraction induced by 50 mM KCl; concentration decreasing detrusor contraction by 50%
From the text: (§1) The activity of Compound (I) as a smooth muscle relaxant which is useful as a therapeutic agent for urinary incontinence can be observed, for example, using the following tests. In the following Test Examples 1 and 2, "IC50 " means the concentration of a test compound which induces the decrease in the contraction of detrusor muscle by 50%.
(§2) Male albino Hartley guinea pigs (350-550 g) were used as test animals. Each animal was exsanguinated to death under pentobarbital sodium anesthesia. The lower abdominal cavity was opened and its bladder was positioned. The connective tissue and the fat tissue around the bladder were removed, and the bladder was cleaned. After two pelvic nerves on the surface of the abdominal side of the bladder were dissected, the bladder was taken out on the entrance of ureter. The bladder was washed with a Krebs-Henseleit buffer [composition (mM): NaCl 118, KCl 4.7, MgSO4 1.2, KH2 PO4 1.2, CaCl2 2.5, NaHCO3 25, and D-glucose 11.1], and then put on a gauze patch soaked in the buffer in a Petri dish. The dome and the trigone of the bladder were dissected and discarded. The back of the bladder was cut vertically in the middle with scissors, and the bladder was put flat on the gauze patch. The dome tip and the side of the trigone of the bladder were dissected and discarded, and the mucosa of the bladder was removed. The back of the bladder was cut vertically to get 6 strips which are ca. 2.0 mm wide and ca. 10 mm long.
(§3) One end of each strip was fixed on a plastic supporter rod, and the other end was fixed on a clip connected to a suture thread. The supporter was fixed in 20 ml of an organ bath and the suture thread connected to the clip was fixed on a force-displacement transducer (NIHON KODEN TB-611T). The tissue was suspended in a Krebs-Henseleit buffer, and the bath solution was warmed to 37° C. and bubbled with a gas mixture of 5% CO2 and 95% O2. The pH of the solution was adjusted to about 7.4. The transducer was connected to a polygraph (NIHON KODEN AP-621G), and the change of tension was recorded on a recorder (YOKOGAWA type 3066). The polygraph was graduated by 0.5 g/cm.
After the tissue was incubated in the buffer for 15 minutes without preloading, tension was added thereto for about one hour. The preloading tension added was 1.5 g and it was relaxed to about 1 g. The tissue was washed at intervals of 15 minutes and the tension was adjusted to 1.5 g just before washing. The tension of the tissue was adjusted to be a steady state at 1 g. After this equilibrium time, 50 mM KCl (the whole content in the bath) was added, and the tissue was washed 10 minutes later. KCl was added to the tissue at intervals of 30 minutes, followed by washing 10 minutes later, and KCl was applied repeatedly until the developed tension induced by KCl becomes constant. When the tissue was confirmed to contract constantly by the application of KCl and relax to the steady state after washing, 50 mM KCl was applied again. After the tissue reached the steady state and the base line was obtained, a test compound was applied by the cumulative method (half-logarithmic incremence). The contact time at each concentration was 30 minutes. The activity of the compound was expressed as the maximum relaxation rate (%) of the tension induced by the agonist.

[2] = tested on: detrusor muscle; assay: Test Example 2: relaxation of guinea pig bladder strips, rhythmical contraction induced by 15 mM KCl; type: cell-based, guinea pig (male albino Hartley); conditions: Cavia porcellus, concentration decreasing detrusor contraction by 50%
From the text: as §1, §2, §3
The effect of a smooth muscle relaxant varies with the concentration of KCl based on the difference of an action mechanism. In the following Test Example, KCl was used at a concentration different from that in Test Example 1.
A sample of the excised bladder was prepared in the same manner as in Test Example 1, and the tension of the preparation was measured. After the tension of the tissue was adjusted to be a steady state at 1 g, 15 mM KCl was applied. After the rhythmical contraction was confirmed to appear by KCl, the tissue was washed. Then, 15 mM KCl was applied again. After the rhythmical contraction took place constantly and the tissue reached the steady state, a test compound was applied by the cumulative method (half-logarithmic incremence). The contact time at each concentration was 30 minutes. The activity of the compound was expressed as the maximum relaxation rate (%) of the tension induced by the agonist.

[3] = tested on: bladder; assay: Test Example 3: vesical contraction interval in anesthetized rats, intravenous; type: in vivo, rat (female SD strain); conditions: 1 mg/kg i.v., average over 20 minutes, relative to pre-administration value
From the text: Female SD strain rats (120-180 g) were used as test animals. Each animal was anesthetized by subcutaneous administration of 1 g/kg urethane. A catheter was inserted into the trachea to secure respiration. A polyethylene cannula (PE50) was inserted into the bladder from the entrance of the urethra and the urethra was ligated at the base. A catheter for blood pressure measurement was inserted into the right carotid artery, and a cannula for drug administration was inserted into the right jugular vein. The arterial catheter and the vesical catheter were connected to pressure transducers to measure the blood pressure and the intravesical pressure. After the bladder was stabilized over about 15 minutes, physiological saline was injected into the bladder at a volume of 0.2-0.7 ml to induce the rhythmical contraction almost once a minute. […]
By this examination method, the effect of the test compounds on both blood pressure and vesical contraction can be evaluated. The blood pressure was measured 5, 15, and 30 minutes after the test compound was injected into the vein. […] The change of average contraction interval (time between contractions) over 20 minutes was expressed as the relative value based on the pre-administration value which was regarded as 100.

[4] = Test Example 3: arterial blood pressure in anesthetized rats, intravenous; type: in vivo, rat (female SD strain); conditions: 1 mg/kg i.v.
From the text: Female SD strain rats (120-180 g) were used as test animals. Each animal was anesthetized by subcutaneous administration of 1 g/kg urethane. A catheter was inserted into the trachea to secure respiration. A polyethylene cannula (PE50) was inserted into the bladder from the entrance of the urethra and the urethra was ligated at the base. A catheter for blood pressure measurement was inserted into the right carotid artery, and a cannula for drug administration was inserted into the right jugular vein. The arterial catheter and the vesical catheter were connected to pressure transducers to measure the blood pressure and the intravesical pressure. After the bladder was stabilized over about 15 minutes, physiological saline was injected into the bladder at a volume of 0.2-0.7 ml to induce the rhythmical contraction almost once a minute. After the contraction of the bladder started, the contraction pattern was stabilized for 30-45 minutes, followed by intravenous administration of a test compound.
By this examination method, the effect of the test compounds on both blood pressure and vesical contraction can be evaluated. The blood pressure was measured 5, 15, and 30 minutes after the test compound was injected into the vein. Micturition contraction was induced by injecting physiological saline into the bladder. The change of average contraction interval (time between contractions) over 20 minutes was expressed as the relative value based on the pre-administration value which was regarded as 100.

[5] = tested on: bladder; assay: Test Example 4: micturition contraction interval in rats under partial restraint, oral; type: in vivo, rat (male SD strain); conditions: Rattus norvegicus, pre-administration = 100; for response vs control in vivo at 3 mg/kg: 3 mg/kg oral; for response vs control in vivo at 1 mg/kg: 1.0 mg/kg oral, second part of Table 4; for response vs control in vivo at 0.1 mg/kg: 0.1 mg/kg oral
From the text: As a control compound, cromakalim was used.

Compound	IC50 [1] [nM]	IC50 [2] [nM]	response vs control in vivo at 1 mg/kg ([5]; 1 hr after administration) [%]	response vs control in vivo at 1 mg/kg ([5]; 2 hr after administration) [%]	response vs control in vivo at 1 mg/kg ([5]; 3 hr after administration) [%]	response vs control in vivo at 1 mg/kg ([5]; 4 hr after administration) [%]	response vs control in vivo at 1 mg/kg ([5]; 5 hr after administration) [%]	also measured
CC(O)(C(=O)Nc1cccc2c1C(=O)c1sccc1CO2)C(F)(F)F (stereo not drawn) [Compound 7, 9-(3,3,3-Trifluoro-2-hydroxy-2-methylpropanoylamino)-4,10-dihydrothieno[3,2-c][1]benzoxepin-10-one]	2400	2100						Change of contraction interval [3]: +186%; Change of average arterial blood pressure ([4]; 5 min): -4%; Change of average arterial blood pressure ([4]; 15 min): +1%; Change of average arterial blood pressure ([4]; 30 min): +4%; response vs control in vivo at 3 mg/kg ([5]; 1 hr): 132%; response vs control in vivo at 3 mg/kg ([5]; 2 hr): 141%; response vs control in vivo at 3 mg/kg ([5]; 3 hr): 149%; response vs control in vivo at 3 mg/kg ([5]; 4 hr): 154%; response vs control in vivo at 3 mg/kg ([5]; 5 hr): 146%
CC(O)(C(=O)Nc1cccc2c1C(=O)c1ccccc1CO2)C(F)(F)F (stereo not drawn) [Compound 1, 1-(3,3,3-Trifluoro-2-hydroxy-2-methylpropanoylamino)-6,11-dihydrodibenz[b,e]oxepin-11-one]	1700	2400						Change of contraction interval [3]: +150%; Change of average arterial blood pressure ([4]; 5 min): +5%; Change of average arterial blood pressure ([4]; 15 min): +5%; Change of average arterial blood pressure ([4]; 30 min): +5%; response vs control in vivo at 3 mg/kg ([5]; 1 hr): 136%; response vs control in vivo at 3 mg/kg ([5]; 2 hr): 148%; response vs control in vivo at 3 mg/kg ([5]; 3 hr): 134%; response vs control in vivo at 3 mg/kg ([5]; 4 hr): 122%; response vs control in vivo at 3 mg/kg ([5]; 5 hr): 117%
CC(O)(C(=O)Nc1ccc2c(c1)OCc1ccsc1C2=O)C(F)(F)F (stereo not drawn) [Compound 8, 7-(3,3,3-Trifluoro-2-hydroxy-2-methylpropanoylamino)-4,10-dihydrothieno[3,2-c][1]benzoxepin-10-one]	5200	500	130 ± 9.3	142 ± 12.6	144 ± 8.8	162 ± 14.6	189 ± 19.6	
CC(O)(C(=O)Nc1ccc2c(c1)C(=O)c1sccc1CO2)C(F)(F)F (stereo not drawn) [Compound 16, 8-(3,3,3-Trifluoro-2-hydroxy-2-methylpropanoylamino)-4,10-dihydrothieno[3,2-c][1]benzoxepin-10-one]	> 10000	1400	118 ± 7.9	132 ± 14.2	119 ± 9.8	127 ± 7.1	137 ± 12.6	
C[C@](O)(C(=O)Nc1cccc2c1C(=O)c1sccc1CO2)C(F)(F)F [Compound 33, (S)-9-(3,3,3-trifluoro-2-hydroxy-2-methylpropanoylamino)-4,10-dihydrothieno[3,2-c][1]benzoxepin-10-one]	1100	2700						response vs control in vivo at 0.1 mg/kg ([5]; 1 hr after administration): 135 ± 21.7%; response vs control in vivo at 0.1 mg/kg ([5]; 2 hr after administration): 146 ± 25.5%; response vs control in vivo at 0.1 mg/kg ([5]; 3 hr after administration): 143 ± 24.4%; response vs control in vivo at 0.1 mg/kg ([5]; 4 hr after administration): 156 ± 30.6%; response vs control in vivo at 0.1 mg/kg ([5]; 5 hr after administration): 161 ± 37.4%
CC(O)(C(=O)Nc1cccc2c1C(=O)c1cccc(F)c1CO2)C(F)(F)F (stereo not drawn) [Compound 20, 7-Fluoro-1-(3,3,3-trifluoro-2-hydroxy-2-methylpropanoylamino)-6,11-dihydrodibenz[b,e]oxepin-11-one]	2300	6000	121 ± 3.9	147 ± 9.9	148 ± 20	156 ± 19.6	142 ± 15.8	
CC(O)(C(=O)Nc1cccc2c1C(=O)c1ccoc1CO2)C(F)(F)F (stereo not drawn) [Compound 9, 5-(3,3,3-Trifluoro-2-hydroxy-2-methylpropanoylamino)-4,10-dihydrofuro[2,3-c][1]benzoxepin-4-one]	4300	4600	123 ± 6.8	131 ± 9.3	133 ± 9.1	145 ± 10	155 ± 12.2	
